Results: US20240116946A1 (Gilead Sciences, Inc., priority 2022, published 2024)
Read-outs that look alike come from different tables or passages of the source.

Experiments:
[1] = molecular target: recombinant SARS-CoV-2 Main protease (Mpro) (Severe acute respiratory syndrome coronavirus 2 (2019-nCoV) (SARS-CoV-2), UniProt P0DTD1); experiment: Cov Mpro Biochemical IC50 Assay; conditions: read-out: MPro IC50
[2] = test system: SARS-CoV-2-NLuc; experiment: microbe, parasite or virus in culture; format: cell-based, SARS Coronavirus 2
[3] = recombinant SARS-CoV-2 Mpro, fluorogenic peptide substrate
[4] = Severe acute respiratory syndrome coronavirus, 48 h, read-out: MPro EC50
[5] = recombinant SARS-CoV-2 Mpro 7.5 nM, fluorogenic peptide substrate 40 μM
[6] = Severe acute respiratory syndrome coronavirus, 48 h; read-out: MPro EC50

SMILES | IC50 [1, 3] [nM] | EC50 [2, 4] [nM] | IC50 [1, 5] [nM] | EC50 [2, 6] [nM] | EC50 ([2]; read-out: MPro EC50) [nM]
O=c1[nH]c2cc(-c3ccccc3Cl)sc2c(=O)n1-c1cncc(C2CC2)c1 [Example 137] | 15 | 40.1 | – | – | –
COc1cc(-c2nc3c(s2)c(=O)n(-c2cncc4ccccc24)c(=O)n3CCC#N)c(Cl)cc1F [Example 903] | – | 13.1 | 8.52 | – | –
Cc1c2c(-n3c(=O)c4sc(-c5ccc(F)cc5Cl)cc4n(CCC#N)c3=O)cncc2nn1C [Example 797, 3-(6-(2-chloro-4-fluorophenyl)-3-(2,3-dimethyl-2H-pyrazolo[3,4-c]pyridin-4-yl)-2,4-dioxo-3,4-dihydrothieno[3,2-d]pyrimidin-1(2H)-yl)propanenitrile] | – | 108 | 34.6 | – | –
Cc1nnc2n1CCN(c1ccc3cncc(-n4c(=O)[nH]c5cc(-c6ccccc6Cl)sc5c4=O)c3c1)C2 [Example 396] | – | 3010 | 14.9 | – | –
O=c1[nH]c2cc(-c3cc(F)c(F)cc3Cl)sc2c(=O)n1-c1cncc2ccccc12 [Example 286] | 34.8 | 60.3 | – | – | –
Cc1c(Cl)cncc1-n1c(=O)c2sc(-c3ccc(F)cc3C#N)cc2n(CCC#N)c1=O [Example 808] | – | – | 74.5 | 183 | –
Cn1ncc(-c2cccc(Cl)c2-c2cc3[nH]c(=O)n(-c4cncc5ccccc45)c(=O)c3s2)c1C(F)(F)F [Example 526] | – | 8.34 | 15.7 | – | –
O=c1[nH]c2cc(-c3ccccc3Cl)ccc2c(=O)n1-c1cncc2ccccc12 (single isomer, unassigned) [Example 105, 7-(2-chlorophenyl)-3-(isoquinolin-4-yl)quinazoline-2,4(1H,3H)-dione] | 70.9 | – | – | – | 74.3
O=c1[nH]c2cc(-c3c(Cl)cccc3CO)sc2c(=O)n1-c1cncc2ccccc12 [Example 235] | 53.5 | – | – | 289 | –
COc1cnc(Cl)c(-c2cc3c(s2)c(=O)n(-c2cncc4cnn(C)c24)c(=O)n3CCC#N)c1 (single isomer, unassigned) [Example 1090, 3-(6-(2-chloro-5-methoxypyridin-3-yl)-3-(1-methyl-1H-pyrazolo[4,3-c]pyridin-7-yl)-2,4-dioxo-3,4-dihydrothieno[3,2-d]pyrimidin-1(2H)-yl)propanenitrile] | – | – | 1.5 | – | 5.22
CN1C(=O)COc2ccc(-c3cccc(Cl)c3-c3ccc4c(=O)n(-c5cncc6ccccc56)c(=O)[nH]c4c3)cc21 [Example 196] | 17.4 | 15.6 | – | – | –
Cn1ncc(-c2cccc(Cl)c2-c2ccc3c(=O)n(-c4cncc5ccccc45)c(=O)[nH]c3c2)c1C(F)(F)F [Example 272] | 212 | 39.6 | – | – | –
COc1ccc(Cl)c(-c2cc3[nH]c(=O)n(-c4cncc5nc(C67CC(F)(C6)C7)n(C)c45)c(=O)c3s2)c1 [Example 436] | – | – | 164 | 489 | –
CC(C)n1cc(-c2cccc(Cl)c2-c2ccc3c(=O)n(-c4cncc5ccccc45)c(=O)[nH]c3c2)c(C(F)(F)F)n1 [Example 282] | 148 | 72.4 | – | – | –
N#CCCn1c(=O)n(-c2cncc3ccccc23)c(=O)c2sc(-c3ccccc3C#N)cc21 (single isomer, unassigned) [Example 964, 2-(1-(2-cyanoethyl)-3-(isoquinolin-4-yl)-2,4-dioxo-1,2,3,4-tetrahydrothieno[3,2-d]pyrimidin-6-yl)benzonitrile] | – | – | 62.5 | – | 87
COc1ccc(Cl)c(-c2ccc3c(=O)n(-c4cncc5ccc(N6CC7(CNC(=O)C7)C6)cc45)c(=O)[nH]c3c2)c1 [Example 411] | – | – | 8.93 | 221 | –
Cc1cncc(-n2c(=O)c3sc(-c4ccccc4Cl)cc3n(CCC#N)c2=O)n1 [Example 833] | – | 49.7 | 16 | – | –
Cc1ccc(C#N)cc1-c1cc2c(s1)c(=O)n(-c1cncc3cnn(C)c13)c(=O)n2CCC#N [Example 809] | – | 200 | 54.2 | – | –
COc1cc(-c2cc3[nH]c(=O)n(-c4cncc5[nH]nc(C(F)(F)F)c45)c(=O)c3s2)c(Cl)cc1F [Example 1045, 6-(2-chloro-4-fluoro-5-methoxyphenyl)-3-(3-(trifluoromethyl)-1H-pyrazolo[3,4-c]pyridin-4-yl)thieno[3,2-d]pyrimidine-2,4(1H,3H)-dione] | – | > 1000 | 141 | – | –
COc1cc(-c2cc3c(s2)c(=O)n(-c2cncc(C4CC4)c2)c(=O)n3CCC#N)c(Cl)cc1F [Example 924] | – | 5.31 | 2.52 | – | –
COc1ccc(Cl)c(-c2cc3[nH]c(=O)n(-c4cncc5sc(C(N)=O)c(C)c45)c(=O)c3s2)c1 [Example 1048, 4-(6-(2-chloro-5-methoxyphenyl)-2,4-dioxo-1,4-dihydrothieno[3,2-d]pyrimidin-3(2H)-yl)-3-methylthieno[2,3-c]pyridine-2-carboxamide] | – | – | 5.23 | 9.86 | –
CCc1cncc(-n2c(=O)[nH]c3cc(-c4ccccc4Cl)sc3c2=O)c1 [Example 217] | 66.6 | 96.2 | – | – | –

SMILES | IC50 [1, 3] [nM] | EC50 [2, 4] [nM] | IC50 [1, 5] [nM] | EC50 [2, 6] [nM] | EC50 ([2]; read-out: MPro EC50) [nM]
O=c1[nH]c2cc(-c3cccnc3)sc2c(=O)n1-c1cncc2ccccc12 [Example 5] | 342 | 1790 | – | – | –
Cn1ncc2cncc(-n3c(=O)c4sc(-c5ccc(C(F)(F)F)cc5C#N)cc4n(CCC#N)c3=O)c21 [Example 775] | – | > 1000 | 600 | – | –
O=c1[nH]c2cc(-c3cccnc3Cl)sc2c(=O)n1-c1cncc2ccccc12 [Example 22] | 37.1 | 120 | – | – | –
CCOc1ccc(Cl)c(-c2cc3[nH]c(=O)n(-c4cncc5ccccc45)c(=O)c3s2)c1 [Example 345] | 14.7 | 61.8 | – | – | –
COc1cc(-c2cc3c(s2)c(=O)n(-c2cncc(Cl)c2Cl)c(=O)n3CCC#N)c(Cl)cc1F [Example 928] | – | 16.2 | 12.2 | – | –
Cc1cc(-n2c(=O)c3sc(-c4ccccc4Cl)cc3n(CCC#N)c2=O)cnc1F [Example 825] | – | 77 | 33.9 | – | –
COc1ccc(Cl)c(-c2ccc3c(=O)n(-c4cncc(C)c4OCC(F)(F)F)c(=O)[nH]c3c2)c1 [Example 375] | 345 | – | – | 632 | –
COc1cnc(Cl)c(-c2cc3c(s2)c(=O)n(-c2cncc4cccc(F)c24)c(=O)n3CCC#N)c1 (single isomer, unassigned) [Example 1094, 3-(6-(2-chloro-5-methoxypyridin-3-yl)-3-(5-fluoroisoquinolin-4-yl)-2,4-dioxo-3,4-dihydrothieno[3,2-d]pyrimidin-1(2H)-yl)propanenitrile] | – | – | 3.27 | – | 9.71
CC(C)COc1ccc(Cl)c(-c2ccc3c(=O)n(-c4cncc5ccccc45)c(=O)[nH]c3c2)c1 [Example 256] | 3990 | 699 | – | – | –
Cc1cc(-c2cccc(Cl)c2-c2cc3[nH]c(=O)n(-c4cncc5ccccc45)c(=O)c3s2)cn2ncnc12 [Example 113] | 7.31 | < 7.31 | – | – | –
NS(=O)(=O)c1cccc(-c2cccc(Cl)c2-c2ccc3c(=O)n(-c4cncc5ccccc45)c(=O)[nH]c3c2)c1 [Example 270] | 13.9 | 85.3 | – | – | –
COc1cnc(Cl)c(-c2cc3c(s2)c(=O)n(-c2cncc(C)c2)c(=O)n3CCC#N)c1 [Example 885] | – | – | 7.57 | 22.9 | –
Cc1cc(Cl)c(-c2cc3c(s2)c(=O)n(-c2cncc4cnn(C)c24)c(=O)n3CCC#N)cc1Cl [Example 1024] | – | 35.4 | 9.7 | – | –
COc1ccc(Cl)c(-c2cnc3c(=O)n(-c4cncc5ccccc45)c(=O)[nH]c3c2)c1 [Example 219] | 5.06 | – | – | 181 | –
O=c1[nH]c2cc(-c3ccccc3)ccc2c(=O)n1-c1cncc2ccccc12 [Example 25] | 1410 | 5040 | – | – | –
COc1cc(-c2cc3[nH]c(=O)n(-c4cncc5c4OCCC5)c(=O)c3s2)c(Cl)cc1F [Example 1079] | – | 9.56 | 10.3 | – | –
Cn1ncc2cncc(-n3c(=O)c4sc(-c5ccc(F)cc5Cl)cc4n(CCC#N)c3=O)c21 [Example 769, 3-(6-(2-chloro-4-fluorophenyl)-3-(1-methyl-1H-pyrazolo[4,3-c]pyridin-7-yl)-2,4-dioxo-3,4-dihydrothieno[3,2-d]pyrimidin-1(2H)-yl)propanenitrile] | – | – | 8.55 | 15.6 | –
O=c1[nH]c2cc(-c3c(Cl)cccc3OCc3ccnnc3)ccc2c(=O)n1-c1cncc2ccccc12 [Example 93] | 11.4 | 95 | – | – | –
Cc1nc(Cl)ccc1-c1cc2[nH]c(=O)n(-c3cncc4ccccc34)c(=O)c2s1 [Example 288] | 227 | 1050 | – | – | –
Cn1cc(-c2cccc(Cl)c2-c2cc3[nH]c(=O)n(-c4cncc5ccccc45)c(=O)c3s2)c(C(F)(F)F)n1 (single isomer, unassigned) [Example 448, 6-(2-chloro-6-(1-methyl-3-(trifluoromethyl)-1H-pyrazol-4-yl)phenyl)-3-(isoquinolin-4-yl)thieno[3,2-d]pyrimidine-2,4(1H,3H)-dione] | – | – | 383 | – | 382
COc1ccc(Cl)c(-c2cc3[nH]c(=O)n(-c4cncc5sc(C#N)c(C)c45)c(=O)c3s2)c1 [Example 1050, 4-(6-(2-chloro-5-methoxyphenyl)-2,4-dioxo-1,4-dihydrothieno[3,2-d]pyrimidin-3(2H)-yl)-3-methylthieno[2,3-c]pyridine-2-carbonitrile] | – | – | 8.89 | 25.5 | –
COc1cc(-c2cc3c(s2)c(=O)n(-c2cncc4nc(C(F)(F)F)n(C)c24)c(=O)n3CCC#N)c(Cl)cc1F (single isomer, unassigned) [Example 973, 3-(6-(2-chloro-4-fluoro-5-methoxyphenyl)-3-(1-methyl-2-(trifluoromethyl)-1H-imidazo[4,5-c]pyridin-7-yl)-2,4-dioxo-3,4-dihydrothieno[3,2-d]pyrimidin-1(2H)-yl)propanenitrile] | – | – | 6.68 | – | 14.7
